Here are results for 33 compounds from patent publication US10807944B2, “HDAC inhibitor compounds and methods of treatment” (priority 2014, dated 2020).

Type in all cases: biochemical
In test [1] the target is HDAC3 (Homo sapiens (Human), UniProt O15379). The experiment in a line: HDAC3 in vitro inhibition, dose response. Particulars: Table 2; read-out: HDAC 3 IC50.
The target of test [2] is HDAC1 (Homo sapiens (Human), UniProt Q13547). As to the kind of experiment: HDAC1 in vitro inhibition, dose response. As to conditions: Table 2; read-out: HDAC 1 IC50.
Test [3] deals with HDAC2 (Homo sapiens (Human), UniProt Q92769). As to the kind of experiment: HDAC2 in vitro inhibition, dose response. Particulars: Table 2; read-out: HDAC 2 IC50.

The term pIC50 denotes −log10 of the IC50, conventionally taken in molar units.

pIC50: −log10 of the molar value.

Sequence of HDAC3 (O15379 whole entry): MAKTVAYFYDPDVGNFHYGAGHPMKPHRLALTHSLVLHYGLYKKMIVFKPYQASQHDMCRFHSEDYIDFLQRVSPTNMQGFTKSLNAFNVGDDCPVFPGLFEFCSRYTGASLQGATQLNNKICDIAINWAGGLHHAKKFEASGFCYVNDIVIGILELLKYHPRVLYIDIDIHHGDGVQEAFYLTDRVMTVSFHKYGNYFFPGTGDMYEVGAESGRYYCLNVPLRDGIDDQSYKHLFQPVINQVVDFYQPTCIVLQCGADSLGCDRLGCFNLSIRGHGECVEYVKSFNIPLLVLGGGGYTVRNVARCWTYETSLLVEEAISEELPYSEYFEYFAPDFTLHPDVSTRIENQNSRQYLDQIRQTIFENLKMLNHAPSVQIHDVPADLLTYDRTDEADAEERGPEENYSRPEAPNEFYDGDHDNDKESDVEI
Sequence of HDAC3 (Q9Y618 395-489 partner): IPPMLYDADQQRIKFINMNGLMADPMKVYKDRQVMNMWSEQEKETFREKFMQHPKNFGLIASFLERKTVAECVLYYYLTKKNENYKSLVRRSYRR
Sequence of HDAC1 (Q13547 whole entry): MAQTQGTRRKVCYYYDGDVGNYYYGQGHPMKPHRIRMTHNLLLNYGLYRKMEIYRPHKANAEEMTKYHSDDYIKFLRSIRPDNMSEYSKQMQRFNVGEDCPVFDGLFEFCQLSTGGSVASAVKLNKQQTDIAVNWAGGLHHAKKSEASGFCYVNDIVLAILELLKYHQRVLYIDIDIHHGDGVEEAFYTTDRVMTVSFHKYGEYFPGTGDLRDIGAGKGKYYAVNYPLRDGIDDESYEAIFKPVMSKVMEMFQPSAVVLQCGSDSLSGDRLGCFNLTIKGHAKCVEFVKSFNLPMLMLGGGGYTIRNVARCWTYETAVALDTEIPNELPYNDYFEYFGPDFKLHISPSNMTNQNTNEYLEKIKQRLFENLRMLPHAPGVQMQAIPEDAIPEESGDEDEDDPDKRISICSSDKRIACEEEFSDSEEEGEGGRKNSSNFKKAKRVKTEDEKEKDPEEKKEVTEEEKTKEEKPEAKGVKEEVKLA
Sequence of HDAC2 (Q92769 whole entry): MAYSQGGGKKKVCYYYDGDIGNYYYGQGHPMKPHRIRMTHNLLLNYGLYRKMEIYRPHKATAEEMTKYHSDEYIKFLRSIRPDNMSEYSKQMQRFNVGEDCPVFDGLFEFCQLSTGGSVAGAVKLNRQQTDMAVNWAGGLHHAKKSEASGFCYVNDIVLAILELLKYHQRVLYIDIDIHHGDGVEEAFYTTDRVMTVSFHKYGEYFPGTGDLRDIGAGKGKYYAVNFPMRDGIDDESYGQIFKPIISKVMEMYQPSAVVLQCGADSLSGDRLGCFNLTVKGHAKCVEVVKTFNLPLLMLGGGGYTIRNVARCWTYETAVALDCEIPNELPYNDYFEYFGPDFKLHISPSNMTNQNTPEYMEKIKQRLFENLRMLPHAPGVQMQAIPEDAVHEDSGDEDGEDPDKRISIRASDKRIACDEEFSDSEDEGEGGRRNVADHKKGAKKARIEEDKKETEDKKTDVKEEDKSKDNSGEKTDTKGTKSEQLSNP

As to `CCCCNNC(=O)c1ccc(F)cc1` [RLS2-123, N′-butyl-4-fluorobenzohydrazide], the negative logarithm of the IC50 (pIC50) in test [1] is 5.75; in test [2], 4.88; in test [3], 4.82.

In the case of `CCCCNNC(=O)c1ccc(OC(F)(F)F)cc1` [RLS2-124, N′-butyl-4-(trifluoromethoxy)benzohydrazide], the negative-log IC50 (pIC50) in test [1] was 5.87; in test [2] it was 5.05; in test [3], 5.04.

As to `CCCCNNC(=O)c1ccc(OC)cc1` [RLS2-126, N′-butyl-4-methoxybenzohydrazide], the negative logarithm of the IC50 (pIC50) in test [1] is 6.37; in test [2], 5.72; in test [3], 5.60.

Regarding `CCCCNNC(=O)c1ccc([N+](=O)[O-])cc1` [RLS2-128, N′-butyl-4-nitrobenzohydrazide], the negative-log IC50 (pIC50) in test [1] was 5.61; in test [2] it was 4.67; in test [3] it was 4.67.

`CCCCNNC(=O)c1ccc(Cl)cc1` [RLS2-133, N′-butyl-4-chlorobenzohydrazide]: the results for the negative-log IC50 (pIC50) in test [1], in test [2] and in test [3] were 6.02, 5.43 and 5.24, respectively.

On to `CCCNNC(=O)c1ccc(Br)cc1` [RLS2-137, 4-bromo-N′-propylbenzohydrazide], for which the negative-log IC50 (pIC50) in test [1] was 6.66; in test [2], 5.77; in test [3], 5.41.

For `O=C(NNCCc1ccccc1)c1ccc(Br)cc1` [RLS2-138, 4-bromo-N′-phenethylbenzohydrazide], the negative-log IC50 (pIC50) in test [1], in test [2] and in test [3] was less than 4.30 each time.

Turning to `CC(C)NNC(=O)c1ccccc1` [RLS2-185, N′-isopropylbenzohydrazide], the pIC50 in test [1], in test [2] and in test [3] was less than 4.30 each time.

Regarding `Cc1ccc(C(=O)NNC(C)(C)C)cc1` [RLS2-187, N′-tert-butyl-4-methylbenzohydrazide], the negative logarithm of the IC50 (pIC50) in test [1], in test [2] and in test [3] was less than 4.30 each time.

Turning to `CCCCNNC(=O)c1cc2ccccc2cc1O` [RLS2-210, N′-butyl-3-hydroxy-2-naphthohydrazide], the negative logarithm of the IC50 (pIC50) in test [1], in test [2] and in test [3] was less than 4.30 throughout.

`O=C(NNCCC1CCCC1)c1ccc(Br)cc1` [RLS2-219, 4-bromo-N′-(2-cyclopentylethyl)benzohydrazide]: the pIC50 in test [1] is 5.97; in test [2], 5.13; in test [3], 5.12.

On to `CN(C)c1ccc(C(=O)NNCC2CCCC2)cc1` [RLS2-225, N′-(cyclopentylmethyl)-4-(dimethylamino)benzohydrazide], for which the negative-log IC50 (pIC50) in test [1] is 5.78; in test [2], 5.75; in test [3], 5.49.

Turning to `CCCCNNC(=O)c1ccc2ccccc2c1` [RLS2-238, N′-butyl-2-naphthohydrazide], the negative-log IC50 (pIC50) in test [2] was 5.37; in test [3], 5.23.

For the compound `CCNNC(=O)c1ccc2ccccc2c1` [RLS2-240, N′-ethyl-2-naphthohydrazide], the pIC50 in test [1], in test [2] and in test [3] was less than 4.30 throughout.

Turning to `NNC(=O)c1ccc2ccccc2c1` [RLS2-243, 2-naphthohydrazide], the pIC50 in test [1], in test [2] and in test [3] was less than 4.30 throughout.

With `O=C(NNCCCC1CCCC1)c1ccc2ccccc2c1` [RLS2-249, N′-(3-cyclopentylpropyl)-2-naphthohydrazide], the pIC50 in test [1], in test [2] and in test [3] was less than 4.30 each time.

Take `O=C(NNCC1CCCC1)c1ccc2ccccc2c1` [RLS2-254, N′-(cyclopentylmethyl)-2-naphthohydrazide]: the negative-log IC50 (pIC50) in test [1], in test [2] and in test [3] was less than 4.30 throughout.

Consider `CCCNNC(=O)c1ccc2ccccc2c1` [RLS2-255, N′-propyl-2-naphthohydrazide], for which the results for the pIC50 in test [1], in test [2] and in test [3] were 5.78, 5.46 and 5.18, respectively.

Take `O=C(NNCC1CCCC1)c1ccc(Br)cc1` [RLS2-256, 4-bromo-N′-(cyclopentylmethyl)benzohydrazide]: the pIC50 in test [1] is 5.16; in test [2], 5.06; in test [3], 4.55.

Regarding `O=C(NNCCCC1CCCC1)c1ccc(Br)cc1` [RLS2-257, 4-bromo-N′-(3-cyclopentylpropyl)benzohydrazide], the negative-log IC50 (pIC50) in test [1], in test [2] and in test [3] was less than 4.30 each time.

For the compound `CCCCCCNNC(=O)c1ccc(C(C)(C)C)cc1` [RLS2-283, 4-tert-butyl-N′-hexylbenzohydrazide], the negative logarithm of the IC50 (pIC50) in test [1] is 5.09; in test [2], 5.65; in test [3], 5.55.

Turning to `CCCCCCNNC(=O)c1ccc(Br)cc1` [RLS2-284, 4-bromo-N′-hexylbenzohydrazide], the results for the negative-log IC50 (pIC50) in test [1], in test [2] and in test [3] were 4.70, 4.99 and 4.79, respectively.

As for `CCCCNNC(=O)c1cccnc1` [RLS2-289, N′-butylnicotinohydrazide], the negative logarithm of the IC50 (pIC50) was 5.36 in test [1], 4.84 in test [2] and 4.25 in test [3].

Regarding `CCCCNNC(=O)c1ccncc1` [RLS2-290, N′-butylisonicotinohydrazide], the negative logarithm of the IC50 (pIC50) in test [1] was 5.85; in test [2] it was 5.37; in test [3], 4.86.

For the compound `CCCCNNC(=O)c1cccc(OCC)c1` [RLS2-303, N′-butyl-3-ethoxybenzohydrazide], the negative-log IC50 (pIC50) in test [1], in test [2] and in test [3] was less than 4.30 in each case.

`CCCCNNC(=O)c1ccccc1F` [RLS2-305, N′-butyl-2-fluorobenzohydrazide]: the values for the negative logarithm of the IC50 (pIC50) in test [1], in test [2] and in test [3] were 4.37, 4.14 and 4.10, respectively.

Turning to `CCCCNNC(=O)c1ccccc1-c1ccccc1` [RLS3-4, N′-butylbiphenyl-2-carbohydrazide], the pIC50 in test [1], in test [2] and in test [3] was less than 4.30 throughout.

For `CCCCNNC(=O)c1cccc(I)c1` [RLS3-5, N′-butyl-3-iodobenzohydrazide], the pIC50 was less than 4.30 in test [1], 4.50 in test [2] and 4.33 in test [3].

For the compound `CCCCNNC(=O)c1cccc(C(F)(F)F)c1` [RLS3-6, N′-butyl-3-(trifluoromethyl)benzohydrazide], the pIC50 in test [1] is 5.73; in test [2], 4.45; in test [3] it was 4.03.

Consider `CCCCNNC(=O)c1ccc(OC)c(OC)c1` [RLS3-11, N′-butyl-3,4-dimethoxybenzohydrazide], for which the pIC50 is 5.40 in test [1], 4.65 in test [2] and 4.69 in test [3].

`CCCCNNC(=O)c1ccc(OCC)c(OCC)c1` [RLS3-14, N′-butyl-3,4-diethoxybenzohydrazide]: the negative-log IC50 (pIC50) in test [1] was 6.10; in test [2], 4.93; in test [3], 5.13.

Regarding `CCCCNNC(=O)c1ccc(OC)c(OC)c1` [RLS3-20], the figures for the pIC50 in test [1], in test [2] and in test [3] were 4.86, less than 4.30 and 4.52, respectively.

Take `CCCCNNC(=O)c1ccc(-c2cncnc2)cc1` [SR-4369, N′-butyl-4-(pyrimidin-5-yl)benzohydrazide]: the figures for the pIC50 in test [1], in test [2] and in test [3] were 5.64, 5.91 and 5.14, respectively.
